Test systems include NCI-H522; OVCAR-3; Hs-578T; PC-3; LOX IMVI; SK-MEL-28; SK-MEL-2; HCT-15; HCT-116; SF-295; UO-31; NCI-H460; NCI/ADR-RES; MDA-MB-231; UACC-257; TK-10; RPMI-8226; HOP-62; MCF7; MDA-N.
Holding throughout (assay): growth of human tumour cells (NCI), 48 h

Structures are written as SMILES.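 Grown in 96-well plates, cells were treated for 48 hours with each compound at five concentrations. Insufficient inhibition: endpoint recorded as highest concentration tested. GI50 is the concentration that inhibits growth by half.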 Active and inactive are the calls of the source. Rule as the data show it: active = GI50 up to about 1.1 µM and inactive = higher.

`CCSc1nc(=S)n(-c2ccccc2)c(C)c1C(C)=O`: the GI50 in the test on NCI-H522, with OVCAR-3, with Hs-578T, with PC-3, in the test with LOX IMVI and with SK-MEL-28 was > 100 µM (inactive) throughout. In addition, the GI50 in the test on SK-MEL-2 is > 100 µM (inactive); with HCT-15 it was above 100 µM; with HCT-116, > 100 µM (inactive); with SF-295, > 100 µM (inactive); in the test with UO-31 it was > 100 µM (inactive); in the test with NCI-H460, > 100 µM (inactive). Moreover, the GI50 in the test with NCI/ADR-RES, with MDA-MB-231, with UACC-257, with TK-10, in the test with RPMI-8226 and with HOP-62 was > 100 µM (inactive) in each case. Besides, the GI50 with MCF7 was > 100 µM (inactive).

Regarding `O=C1CSc2ccnc(=O)n21`, the GI50 in the test on NCI-H522, with Hs-578T, in the test on PC-3, in the test on SK-MEL-28, in the test with HCT-116 and in the test on UO-31 was > 100 µM (inactive) in each case. The GI50 in the test on NCI-H460, in the test with MDA-N, with UACC-257, with TK-10, in the test on RPMI-8226 and in the test with HOP-62 was > 100 µM (inactive) in each case. In the test on MCF7, the GI50 is > 100 µM (inactive).

For the compound `COc1cc([C@@H]2c3cc4c(cc3[C@@H](c3c(O)cc(O)c5c3O[C@H](c3ccc(O)c(O)c3)[C@@H](O)C5)[C@H]3COC(=O)[C@H]23)OCO4)cc(OC)c1OC`, the GI50 was 14.1 µM (inactive) in the test on NCI-H522; 1.64 µM (inactive) with OVCAR-3; 34 µM (inactive) in the test on Hs-578T; 1.75 µM (inactive) in the test on PC-3; 25.6 µM (inactive) in the test with LOX IMVI; 48.4 µM (inactive) with SK-MEL-28. For the same compound, the GI50 is 1.88 µM (inactive) with SK-MEL-2; 39.2 µM in the test on HCT-15; 21.1 µM (inactive) in the test with HCT-116; 1.85 µM (inactive) with SF-295; 1.87 µM (inactive) in the test on NCI-H460; 46 µM (inactive) in the test on NCI/ADR-RES. The GI50 was 1.67 µM (inactive) in the test with MDA-MB-231; 1.95 µM (inactive) with UACC-257; 1.79 µM (inactive) in the test with TK-10; 19.6 µM (inactive) in the test on RPMI-8226; 1.88 µM (inactive) in the test on HOP-62; 1.72 µM (inactive) in the test on MCF7.

Consider `O=C(O)CN1CCN2CCOCCN(CC1)CCN(CC(=O)O)CC2`, for which the GI50 in the test with NCI-H522, with OVCAR-3, in the test on Hs-578T, in the test on PC-3, in the test with LOX IMVI and in the test with SK-MEL-28 was > 100 µM (inactive) in each case. For the same compound, the GI50 with SK-MEL-2 was > 100 µM (inactive); with HCT-15 it was above 100 µM; in the test on HCT-116 it was > 100 µM (inactive); with SF-295 it was > 100 µM (inactive); in the test with UO-31, > 100 µM (inactive); in the test on NCI-H460, > 100 µM (inactive). Moreover, the GI50 in the test on NCI/ADR-RES, in the test on MDA-MB-231, with UACC-257, in the test on TK-10, in the test with RPMI-8226 and with HOP-62 was > 100 µM (inactive) throughout. Also, in the test with MCF7, the GI50 was > 100 µM (inactive).

In the case of `CCOC(=O)C1=C(C)OC2(O)C=CC(O)=C3C(=O)N(c4ccccc4)C(=O)C312` (stereo not given), the GI50 in the test with NCI-H522 was 18.5 µM (inactive); with OVCAR-3 it was 61.9 µM (inactive); in the test on Hs-578T, 32.9 µM (inactive); with PC-3 it was 35.3 µM (inactive); in the test on LOX IMVI, 21.8 µM (inactive); with SK-MEL-28, 22.5 µM (inactive). The GI50 in the test on SK-MEL-2 was 30.5 µM (inactive); in the test with HCT-15, 30.6 µM; with HCT-116, 54.8 µM (inactive); in the test on SF-295, > 100 µM (inactive); with UO-31, 24.4 µM (inactive); in the test with NCI-H460, > 100 µM (inactive). Moreover, the GI50 in the test with NCI/ADR-RES was 42.2 µM (inactive); in the test on MDA-MB-231, 37.8 µM (inactive); in the test on UACC-257, 39.1 µM (inactive); in the test on TK-10, 37.4 µM (inactive); with RPMI-8226, 14.9 µM (inactive); in the test on HOP-62, 53.5 µM (inactive). In the test on MCF7, the GI50 was 29.6 µM (inactive).

In the case of `O=C(C(=C(I)I)c1ccccc1)c1ccccc1`, the GI50 with OVCAR-3 is 20.9 µM (inactive); in the test with Hs-578T, 16.1 µM (inactive); with PC-3, 28.4 µM (inactive); in the test with SK-MEL-28, 30.7 µM (inactive); with SK-MEL-2, 16.1 µM (inactive); in the test with HCT-15, 29.9 µM. For the same compound, the GI50 in the test on HCT-116 is 17.1 µM (inactive); in the test on SF-295, 21.7 µM (inactive); in the test on UO-31, 20.8 µM (inactive); with NCI-H460 it was 27.5 µM (inactive); with NCI/ADR-RES it was 28.6 µM (inactive); in the test on MDA-N it was 19.1 µM (inactive). Also, the GI50 in the test with UACC-257 was 37.4 µM (inactive); in the test with TK-10, 28.4 µM (inactive); with RPMI-8226, 19.5 µM (inactive); with HOP-62 it was 19.2 µM (inactive); with MCF7, 49.8 µM (inactive).

Regarding `COc1cc(Nc2nc3ccccc3nc2C(=O)O)cc(OC)c1OC`, the GI50 was 46 µM (inactive) with NCI-H522; 45.8 µM (inactive) in the test on OVCAR-3; 20.8 µM (inactive) in the test with Hs-578T; > 100 µM (inactive) with PC-3; 53 µM (inactive) in the test with LOX IMVI; 30.1 µM (inactive) in the test on SK-MEL-28. The GI50 is 32.4 µM in the test on HCT-15; > 100 µM (inactive) in the test on HCT-116; 23.9 µM (inactive) with SF-295; 21.6 µM (inactive) in the test with UO-31; 65.3 µM (inactive) in the test with NCI-H460; 23 µM (inactive) in the test on NCI/ADR-RES. Also, the GI50 in the test on MDA-N was > 100 µM (inactive); in the test on MDA-MB-231, 16.4 µM (inactive); in the test on UACC-257, 87.3 µM (inactive); in the test on TK-10, 16.3 µM (inactive); in the test with RPMI-8226 it was 70 µM (inactive); with HOP-62, 22.8 µM (inactive).

With `Cc1cccc(Nc2cn(CCOc3ccccc3)c(=O)n(CCOc3ccccc3)c2=O)c1`, the GI50 was > 100 µM (inactive) with OVCAR-3; > 100 µM (inactive) in the test with Hs-578T; > 100 µM (inactive) in the test with PC-3; > 100 µM (inactive) in the test on LOX IMVI; > 100 µM (inactive) in the test on SK-MEL-28; above 100 µM in the test on HCT-15. Besides, the GI50 in the test on HCT-116, with SF-295, with UO-31, with NCI-H460, with MDA-N and with UACC-257 was > 100 µM (inactive) each time. Also, the GI50 in the test with RPMI-8226 was 67.5 µM (inactive); in the test on HOP-62, > 100 µM (inactive); in the test on MCF7, > 100 µM (inactive).

`CC(C)=CCC/C(C)=C/COC(C)(C)C1=CCC(C)CC1.CC(C)=CCC/C(C)=C/COC1CC(C)CCC1=C(C)C` (stereo not given): the GI50 with NCI-H522 is > 100 µM (inactive); in the test with OVCAR-3 it was > 100 µM (inactive); with Hs-578T, > 100 µM (inactive); with PC-3 it was > 100 µM (inactive); with SK-MEL-28 it was > 100 µM (inactive); in the test with HCT-15, above 100 µM. Also, the GI50 in the test on HCT-116 is > 100 µM (inactive); in the test on SF-295, > 100 µM (inactive); with UO-31, > 100 µM (inactive); in the test with NCI-H460 it was > 100 µM (inactive); in the test on MDA-N it was > 100 µM (inactive); with UACC-257, 63.8 µM (inactive). In addition, the GI50 is > 100 µM (inactive) in the test with TK-10, 36.7 µM (inactive) in the test on RPMI-8226, > 100 µM (inactive) in the test on HOP-62 and 65.3 µM (inactive) in the test on MCF7.

For the compound `Cn1c(-c2ccccc2)cc(-c2ccc3c(c2)OCO3)c1-c1cccs1`, the GI50 in the test with OVCAR-3, in the test on Hs-578T, in the test on PC-3, in the test with LOX IMVI, with SK-MEL-28 and in the test on SK-MEL-2 was > 100 µM (inactive) in each case. Also, the GI50 with HCT-15 was above 100 µM; in the test on HCT-116, 96.8 µM (inactive); in the test on SF-295 it was > 100 µM (inactive); in the test with UO-31, > 100 µM (inactive); in the test with NCI-H460, > 100 µM (inactive); in the test on NCI/ADR-RES it was > 100 µM (inactive). For the same compound, the GI50 in the test on MDA-N, with UACC-257, in the test on TK-10, with RPMI-8226, with HOP-62 and in the test with MCF7 was > 100 µM (inactive) each time.

Take `CC(C)(Oc1ccc(Cl)cc1)C(=O)N(C(=O)N1CCC(c2ccccc2)CC1)c1ccccc1`: the GI50 in the test on OVCAR-3 was > 73.5 µM (inactive); in the test on Hs-578T, > 73.8 µM (inactive); in the test with PC-3, 5.51 µM (inactive); in the test on LOX IMVI, 22.9 µM (inactive); in the test with SK-MEL-28, > 100 µM (inactive); in the test on SK-MEL-2, > 59.7 µM (inactive). In addition, the GI50 was 9.89 µM with HCT-15; 4.78 µM (inactive) with HCT-116; 23.8 µM (inactive) with SF-295; 22.4 µM (inactive) in the test on UO-31; 16 µM (inactive) with NCI-H460; > 29.6 µM (inactive) with NCI/ADR-RES. The GI50 is > 100 µM (inactive) with MDA-MB-231; 11 µM (inactive) in the test with UACC-257; > 30.1 µM (inactive) with TK-10; 2.99 µM (inactive) in the test with RPMI-8226; > 100 µM (inactive) in the test with HOP-62; 23.7 µM (inactive) in the test on MCF7.

Values taken from ChEMBL document CHEMBL1201862, “PubChem BioAssay data set” (2004).
